In patent US10213449B2, “Compositions and methods for treating medulloblastoma” (The Board of Trustees of the Leland Stanford Junior …, priority 2016, dated 2019):
Entries after “also recorded” stand apart in the source; their conditions may differ.

How the values were obtained:
[1] = tested on: MB cell lines (MB55, MB21, MB53); test: Cell viability of MB cell lines (CellTiter-Glo); type: cell-based, mouse; details: multiple MB cell lines derived from Ptch1+/− and Ptch1+/−; Trp53−/− mice
Description: Ptch+/−MB cell lines MB55 and MB21 were kindly gifted from Dr. Rosalind Segal (Dana Farber Cancer Institute, Harvard Medical School) and Ptch^+/−; p53^−/− MB53 cells were kindly gifted from Charles Rudin (Memorial Sloan-Kettering Cancer Center). All cell lines were validated for high Gli activity. Cell viability was assessed using CellTiter-Glo (G7573, Promega, WI, USA) according to the manufacturers instructions. Cells were plated at 10000 cells/well in 96-well plates, treated with drugs as indicated and data was collected on a TECAN Infinite 200 plate reader.

[2] = tested on: Hh signaling in NIH 3T3 cells exposed to Shh; test: RT-qPCR of Hh target transcripts in Shh-stimulated NIH 3T3 cells; type: cell-based, mouse; details: SHH ligand-induced NIH 3T3 cells; as early as 4 h post exposure
Description: (§1) NIH3T3s or SUFU−/− MEFs were plated in 6 well plates at 400,000 cells/well in 10% FBS media constituted of DMEM (Invitrogen11960-069) supplemented with 10% FBS (Hyclone Labs SH30070.02), pen/strep (Life Technologies 15140-122), sodium pyruvate (Invitrogen 11360-070) and glutamax (Invitrogen 35050-061). Cells were then starved in 0.5% FBS for 24 h prior to treatment with 25% ShhN conditioned media in 0.5% FBS+/− drug treatment. GliΔN were treated 48 h post transfection. Unless otherwise stated, all treatments were performed for 6 h. Cell lysis and RNA extraction was performed using Qiashredder homogenizers (Qiagen 79654) and RNEasy mini kits (qiagen 74104) as per manufacturer's instructions. RNA was quantified on a nanodrop spectrophotometer (nanoddrop technologies ND-2000C). Transcript quantification was performed using a TaqMan RNA-to-Ct 1-Step Kit (Life technologies, 4392656) and the Applied Biosystems 7500 RT-PCR system as per the manufacturer's instructions. All primers were commercially available TaqMan® Gene Expression Assay probes purchased from Life Technologies (csnk2a1: Mm00786779_s1, csnk2a2: Mm01243455_m1, csnk2b: Mm00487216_m1, Gli1: Mm00494654_m1, Gli2: Mm.273292, Ccnd1: Mm.273049, Ptch: Mm00436047_m1).

[3] = tested on: Ptch+/−; Trp53−/−; SmoD477G MB intracranial allografts; test: Intracranial allograft survival study; type: in vivo, mouse; details: CX-4945 75 mg/kg PO BID vs vehicle control
Description: Ptch+/−; Tpr53−/−; SmoD477G were suspended in sterile PBS to an adjusted final volume of at 80,000 cells/2 uL injection. Mice were anesthetized and fixed to a stereotactic frame and the head was sterilized. A small sagittal incision was made in the mouse's scalp to expose the area surrounding lambda. The skull was sterilized a 0.7 mm drill bit was used to create a midline hole located 2 mm down from lambda. A Hamilton syringe with affixed 26 g needle was lowered to a depth of ˜3 mm then withdraw to 2.75 mm before injecting 2 uL (80,000) cells at 0.5 ul/min. The drill hole was closed with a thin slip of bone wax and the wound was closed. […] Corn oil was used as vehicle for both CX-4945 and DMSO. Weight, morbidity and survival were measured by a blinded collaborator. Kaplan-meyer survival curves were generated using GraphPad Prism and significance was measured by Logrank Mantel-Cox test.

[4] = tested on: Medulloblastoma cell lines (MB53, MB55 and MB21 cells); test: Acquired resistance in medulloblastoma cell lines; type: cell-based, mouse; details: CX-4945 10 uM
Description: Medulloblastoma cell lines (MB53, MB55 and MB21 cells) were cultured in Neurobasal (Life Technologies 10888-022)+B27 supplement (Invitrogen 17504044)+DMSO (0.1%), CX-4945 (10 uM) or TBB (50 uM). […] Primer sequences are provided in supplemental table 5.

[5] = tested on: Hh signaling in Sufu−/− mouse embryonic fibroblasts; test: RT-qPCR of Gli1 in Sufu−/− MEFs (epistasis study); type: cell-based
Source text: (§2) Epistasis studies were next performed to determine where in the hedgehog pathway CK2 acts. The effect of TBB was examined: (i) in NIH 3T3s stimulated with SAG, a SMO agonist, (ii) in Sufu−/− mouse embryonic fibroblasts (MEF), and (iii) in NIH 3T3 cells overexpressing GLI2 (FIG. 3d-3f).
Sufu^−/− MEFs (conditional deletion of exons 4-8) were kindly provided by Pao-Tien Chang (UCSF). SAG (S7779), GDC-0449 (Vismodegib, S1082) and CX-4945 (Silmitasertib, S2248) was purchased from SelleckChem.com. TBB was purchased from EMD (218697). Shh-N conditional medium was made using a HEK 293 cell line that stably secretes ShhN as previously described. Myc-GL12-DN (17649, pCS2-MT-GLI2-deltaN) plasmid was purchased from Addgene (Cambridge, Mass., USA). […]
NIH3T3s or SUFU−/− MEFs were plated in 6 well plates at 400,000 cells/well in 10% FBS media constituted of DMEM (Invitrogen11960-069) supplemented with 10% FBS (Hyclone Labs SH30070.02), pen/strep (Life Technologies 15140-122), sodium pyruvate (Invitrogen 11360-070) and glutamax (Invitrogen 35050-061). […] RNA was quantified on a nanodrop spectrophotometer (nanoddrop technologies ND-2000C). Transcript quantification was performed using a TaqMan RNA-to-Ct 1-Step Kit (Life technologies, 4392656) and the Applied Biosystems 7500 RT-PCR system as per the manufacturer's instructions. […]

[6] = tested on: Ptch+/−; Tpr53−/−; SmoD477G MB flank allografts; test: Flank allograft study, SMO inhibitor-resistant MB; type: in vivo, mouse; details: TBB 30 mg/kg IP BID or GDC-0449 37.5 mg/kg IP BID vs vehicle control
Description: In vivo efficacy studies were performed in accordance with protocols approved by the Institutional Animal Care and Use Committee at Stanford University. SmoWT-MB and Smo[…]-MB cells isolated from either parental SmoWT or Smo[…] mouse Ptch^+/-; p53^-/- MB hind-flank allografts were kindly provided by Charles Rudin (Memorial Sloan-Kettering Cancer Center). Ptch+/-; Tpr53-/-, or, Ptch+/-; Tpr53-/-; Smo[…] MB cells were mixed 1:1 with matrigel and 10^7 cells were injected into both flanks of a Nu/Nu mouse. Once tumors reached 225-275 mm^3, mice were randomized to treatment vs. control groups. Treatment groups received 30 mg/kg IP BID of TBB (reconstituted in DMSO at 50 ug/uL), or 37.5 mg/kg IP BID of GDC-0449 (reconstituted in DMSO at 62.5 ug/uL). Control mice were treated with an equivalent volume of DMSO. Corn oil was used in all groups to a total volume of 180 uL/injection and all doses were given with a 28 g insulin syringe. Tumors were measured and mice were weighed daily. Once tumors reached 1.5 cm^2 or met institutional euthanasia criteria, mice were sacrificed and tumors were harvested. Growth curves were generated using GraphPad Prism and significance was measured by two-way ANOVA.

[7] = tested on: Hh signaling in NIH 3T3s stimulated with SAG; test: RT-qPCR of Gli1 in NIH 3T3s stimulated with SAG (epistasis study); type: cell-based, mouse; details: NIH 3T3s, SAG treated groups
Description: as §2
as §1, with “All primers were commercially available TaqMan® Gene Expression Assay probes purchased from Life Technologies (csnk2a1: Mm00786779_s1, csnk2a2: Mm01243455_m1, csnk2b: Mm00487216_m1, Gli1: Mm00494654_m1, Gli2: Mm.273292, Ccnd1: Mm.273049, Ptch: Mm00436047_m1).” left out

SMILES: O=C(O)c1ccc2c(c1)nc(Nc1cccc(Cl)c1)c1ccncc12 [CX-4945, 5-(3-Chloroanilino)benzo[c][2,6]naphthyridine-8-carboxylic acid]
- cell viability [1]: decreased; also recorded: dose dependent tumoricidal effects
- Gli1 mRNA levels [2]: inhibited; also recorded: loss of Gli1 induction
- survival (Kaplan-Meier) of mice harboring intracranial allografts [3]: significant increase in survival
- surviving cells after 2 weeks of culture with drug [4]: only control treated (DMSO) and MB55 TBB treated (50 uM) cells remained

SMILES: CS(=O)(=O)c1ccc(C(=O)Nc2ccc(Cl)c(-c3ccccn3)c2)c(Cl)c1 [GDC-0449, 2-chloro-N-(4-chloro-3-pyridin-2-ylphenyl)-4-methylsulfonylbenzamide]
- Gli1 mRNA / Gli transcript levels [5]: no significant change
- tumor growth of SmoD477G MB flank allografts [6]: resistant
- Gli1 mRNA levels [2]: loss of Gli1 induction

SMILES: CNC1CCC(N(Cc2cccc(-c3ccncc3)c2)C(=O)c2sc3ccccc3c2Cl)CC1 (centres unmarked) [SAG]
- Gli1 mRNA levels (effect of SMO agonist) [7]: Increased
